Like-named read-outs stand apart in the source and are kept apart here.
Tests used:
[1] = Volatility of compounds measured by thermogravimetric analysis (TGA); assay type: physicochemical
[2] = test system: ABUTH, AMATA, AMBEL, CHEAL, ERICA weeds; test: Postemergence herbicide evaluation, overall average % weed control across ABUTH, AMATA, AMBEL, CHEAL, ERICA; assay type: in vivo
Text: For example, the pesticidal activity may include herbicidal activity.

[3] = test system: Ambrosia artemisiifolia (AMBEL), common ragweed; test: Postemergence herbicide evaluation, growth of Ambrosia artemisiifolia (AMBEL); assay type: in vivo; settings: Ambrosia artemisiifolia, post-emergence, read-out: AVE. AMBEL, percent reduction in plant size relative to the untreated control; for pest or weed control at 280 g/ha: 280 g ae/ha; for pest or weed control at 560 g/ha: 560 g ae/ha
[4] = test system: weeds ABUTH, AMATA, AMBEL, CHEAL, ERICA; test: Postemergence herbicide evaluation, overall average % weed control (ABUTH, AMATA, AMBEL, CHEAL, ERICA); assay type: in vivo; settings: post-emergence, read-out: Overall Ave % Weed Control; for pest or weed control at 280 g/ha: 280 g ae/ha; for pest or weed control at 560 g/ha: 560 g ae/ha
[5] = test system: Glycine max (Enlist E3 traited soybeans, GLXMA); settings: Enlist E3 soybeans
[6] = test system: Amaranthus rudis (AMATA), tall water hemp; test: Postemergence herbicide evaluation, growth of Amaranthus rudis (AMATA); assay type: in vivo; settings: Amaranthus tuberculatus, post-emergence, read-out: Ave. AMATA, percent reduction in plant size relative to the untreated control; for pest or weed control at 280 g/ha: 280 g ae/ha; for pest or weed control at 560 g/ha: 560 g ae/ha
[7] = test system: glyphosate resistant Conyza canadensis (L.) (ERICA), horseweed; test: Postemergence herbicide evaluation, growth of Conyza canadensis (ERICA); assay type: in vivo; settings: Erigeron canadensis, post-emergence, read-out: Ave. ERICA, percent reduction in plant size relative to the untreated control; for pest or weed control at 280 g/ha: 280 g ae/ha; for pest or weed control at 560 g/ha: 560 g ae/ha
[8] = test system: Chenopodium album (CHEAL), common lambsquarters; test: Postemergence herbicide evaluation, growth of Chenopodium album (CHEAL); assay type: in vivo; settings: Chenopodium album, post-emergence, read-out: Ave. CHEAL, percent reduction in plant size relative to the untreated control; for pest or weed control at 280 g/ha: 280 g ae/ha; for pest or weed control at 560 g/ha: 560 g ae/ha
[9] = test system: Abutilon theophrasti (ABUTH), velvetleaf; test: Postemergence herbicide evaluation, growth of Abutilon theophrasti (ABUTH); assay type: in vivo; settings: Abutilon theophrasti, post-emergence, read-out: AVE. ABUTH, percent reduction in plant size relative to the untreated control; for pest or weed control at 280 g/ha: 280 g ae/ha; for pest or weed control at 560 g/ha: 560 g ae/ha

In the case of `CN(NC(=O)COc1ccc(Cl)cc1Cl)c1ccccc1` [Compound D11, 2-(2,4-Dichlorophenoxy)-N′-methyl-N′-phenylacetohydrazide], the “TGA Data (rate of weight loss, volatility)” value [1] is reported as 0.06 µg/min, the “Overall Ave % Weed Control” value ([2]; 280 g ae/ha, 7 DAA) is reported as 63% and the “Overall Ave % Weed Control” value ([2]; 280 g ae/ha, 14 DAA) is reported as 76%. For the same compound, the “Overall Ave % Weed Control” value ([2]; 280 g ae/ha, 21 DAA) was 80%, the “Overall Ave % Weed Control” value ([2]; 560 g ae/ha, 7 DAA) was 69% and the “Overall Ave % Weed Control” value ([2]; 560 g ae/ha, 14 DAA) was 82%. For the same compound, the “Overall Ave % Weed Control” value ([2]; 560 g ae/ha, 21 DAA) was 89%.
In the case of `C[N+](C)(C)CCOC(=O)COc1ccc(Cl)cc1Cl.[Cl-]` [Compound E3, 2-(2-(2,4-Dichlorophenoxy)acetoxy)-N, N, N-trimethylethanaminium chloride], the pest or weed control at 280 g/ha ([3]; 168 h, 7 DAA) is reported as 63%, the pest or weed control at 560 g/ha ([3]; 168 h, 7 DAA) is reported as 75% and the pest or weed control at 280 g/ha ([3]; 336 h, 14 DAA) is reported as 89%. The pest or weed control at 560 g/ha ([3]; 336 h, 14 DAA) was 93%, the pest or weed control at 280 g/ha ([3]; 504 h, 21 DAA) was 95% and the pest or weed control at 560 g/ha ([3]; 504 h, 21 DAA) was 98%. It also gave a pest or weed control at 280 g/ha ([4]; 168 h, 7 DAA) of 71%, a pest or weed control at 560 g/ha ([4]; 168 h, 7 DAA) of 77% and a pest or weed control at 280 g/ha ([4]; 336 h, 14 DAA) of 81%. It also gave a pest or weed control at 560 g/ha ([4]; 336 h, 14 DAA) of 86%, a pest or weed control at 280 g/ha ([4]; 504 h, 21 DAA) of 86% and a pest or weed control at 560 g/ha ([4]; 504 h, 21 DAA) of 89%. For the same compound, the “AVE. GLXMA, percent reduction in plant size relative to the untreated control” value ([5]; 280 g ae/ha, 7 DAA) was 0%, the “AVE. GLXMA, percent reduction in plant size relative to the untreated control” value ([5]; 280 g ae/ha, 14 DAA) was 0% and the “AVE. GLXMA, percent reduction in plant size relative to the untreated control” value ([5]; 280 g ae/ha, 21 DAA) was 3%. For the same compound, the “AVE. GLXMA, percent reduction in plant size relative to the untreated control” value ([5]; 560 g ae/ha, 7 DAA) was 0%, the “AVE. GLXMA, percent reduction in plant size relative to the untreated control” value ([5]; 560 g ae/ha, 14 DAA) was 0% and the “AVE. GLXMA, percent reduction in plant size relative to the untreated control” value ([5]; 560 g ae/ha, 21 DAA) was 0%. For the same compound, the “TGA Data (rate of weight loss, volatility)” value [1] was 2.4 µg/min, the pest or weed control at 280 g/ha ([6]; 168 h, 7 DAA) was 78% and the pest or weed control at 560 g/ha ([6]; 168 h, 7 DAA) was 78%. For the same compound, the pest or weed control at 280 g/ha ([6]; 336 h, 14 DAA) was 78%, the pest or weed control at 560 g/ha ([6]; 336 h, 14 DAA) was 85% and the pest or weed control at 280 g/ha ([6]; 504 h, 21 DAA) was 75%. The pest or weed control at 560 g/ha ([6]; 504 h, 21 DAA) was 83%, the pest or weed control at 280 g/ha ([7]; 168 h, 7 DAA) was 73% and the pest or weed control at 560 g/ha ([7]; 168 h, 7 DAA) was 78%. The pest or weed control at 280 g/ha ([7]; 336 h, 14 DAA) was 83%, the pest or weed control at 560 g/ha ([7]; 336 h, 14 DAA) was 88% and the pest or weed control at 280 g/ha ([7]; 504 h, 21 DAA) was 95%. The pest or weed control at 560 g/ha ([7]; 504 h, 21 DAA) was 93%, the pest or weed control at 280 g/ha ([8]; 168 h, 7 DAA) was 68% and the pest or weed control at 560 g/ha ([8]; 168 h, 7 DAA) was 70%. For the same compound, the pest or weed control at 280 g/ha ([8]; 336 h, 14 DAA) was 78%, the pest or weed control at 560 g/ha ([8]; 336 h, 14 DAA) was 73% and the pest or weed control at 280 g/ha ([8]; 504 h, 21 DAA) was 80%. It also gave a pest or weed control at 560 g/ha ([8]; 504 h, 21 DAA) of 77%, a pest or weed control at 280 g/ha ([9]; 168 h, 7 DAA) of 75% and a pest or weed control at 560 g/ha ([9]; 168 h, 7 DAA) of 83%. For the same compound, the pest or weed control at 280 g/ha ([9]; 336 h, 14 DAA) was 78%, the pest or weed control at 560 g/ha ([9]; 336 h, 14 DAA) was 93% and the pest or weed control at 280 g/ha ([9]; 504 h, 21 DAA) was 86%. It also gave a pest or weed control at 560 g/ha ([9]; 504 h, 21 DAA) of 97%.

Source: patent US20260042731A1, “(2,4-DICHLOROPHENOXY)ACETIC ACID ANALOGS” (CORTEVA AGRISCIENCE LLC, priority 2022, published 2026)
